In patent publication US20260355165A1, “2,3,4,9-TETRAHYDRO-1H-PYRIDO[3,4-B]INDOLE DERIVATIVES AS ESTROGEN RECEPTOR MODULATORS FOR THE TREATMENT OF CANCER” (Olema Pharmaceuticals, Inc., priority 2022, published 2026):

Molecular target: T1, estrogen receptor (Homo sapiens, UniProt P03372)
T1 construct: endogenous in cells; host or cells: ECC-1 cells
T1 sequence (P03372 1-595): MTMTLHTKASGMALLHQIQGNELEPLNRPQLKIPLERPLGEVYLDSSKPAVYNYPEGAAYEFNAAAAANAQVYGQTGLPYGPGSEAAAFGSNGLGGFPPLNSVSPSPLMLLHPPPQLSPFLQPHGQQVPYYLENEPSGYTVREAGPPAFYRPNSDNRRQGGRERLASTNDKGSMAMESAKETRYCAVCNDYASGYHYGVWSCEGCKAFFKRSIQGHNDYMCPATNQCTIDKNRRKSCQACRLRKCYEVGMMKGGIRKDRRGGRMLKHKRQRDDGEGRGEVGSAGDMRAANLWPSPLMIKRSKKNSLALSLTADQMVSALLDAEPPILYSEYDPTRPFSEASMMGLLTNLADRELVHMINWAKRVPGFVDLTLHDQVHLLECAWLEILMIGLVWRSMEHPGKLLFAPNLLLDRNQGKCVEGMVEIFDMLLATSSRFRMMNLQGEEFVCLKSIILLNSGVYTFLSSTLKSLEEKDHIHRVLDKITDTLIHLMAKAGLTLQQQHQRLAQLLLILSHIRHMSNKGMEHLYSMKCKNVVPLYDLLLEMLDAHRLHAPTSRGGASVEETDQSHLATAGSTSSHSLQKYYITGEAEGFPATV
Experiment: AP assay (alkaline phosphatase activity in ECC-1 cells), agonist mode (absence of E2) and antagonist mode (presence of 500 pM E2)
Format: cell-based
Conditions: 3 days, AP activity normalized to 500 pM E2 alone, agonist and antagonist mode combined
Method in brief: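 ECC-1 cells in hormone-depleted medium treated with compounds for 3 days, without E2 (agonist mode) or with 500 pM E2 (antagonist mode). AP activity read at 405 nm after p-nitrophenyl phosphate substrate, 40 min at 42 °C. Signal normalized to 500 pM E2 alone.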

SMILES | Activity (estrogen receptor modulation, e.g., agonism and antagonism)
C[C@@H]1Cc2c([nH]c3ccccc23)[C@@H](c2ccc3[nH]c(CN4CC(CF)C4)cc3c2)N1CC(F)(F)CO [Compound I-45, 2,2-difluoro-3-[(1R,3R)-1-[2-[[3-(fluoromethyl)azetidin-1-yl]methyl]-1H-indol-5-yl]-3-methyl-1,3,4,9-tetrahydropyrido[3,4-b]indol-2-yl]propan-1-ol] | +++ (estrogen receptor antagonism (i) with pIC50 greater than 7.5 and at least a 10% reduction in the E2-normalized signal in the AP assay (antagonist mode); and (ii) no more than 10% increase in E2-normalized signal in the AP assay (agonist mode))
CC1CN(Cc2cc3cc([C@@H]4c5[nH]c6ccccc6c5C[C@@H](C)N4CC(F)(F)CO)ccc3[nH]2)C1 [Compound I-46, 2,2-difluoro-3-[(1R,3R)-3-methyl-1-[2-[(3-methylazetidin-1-yl)methyl]-1H-indol-5-yl]-1,3,4,9-tetrahydropyrido[3,4-b]indol-2-yl]propan-1-ol] | +++ (estrogen receptor antagonism (i) with pIC50 greater than 7.5 and at least a 10% reduction in the E2-normalized signal in the AP assay (antagonist mode); and (ii) no more than 10% increase in E2-normalized signal in the AP assay (agonist mode))
C[C@@H]1Cc2c([nH]c3ccccc23)[C@@H](c2ccc3[nH]c(CN4CC[C@H](F)C4)cc3c2)N1CC(C)(C)F [Compound I-47, (1R,3R)-2-(2-fluoro-2-methyl-propyl)-1-[2-[[(3S)-3-fluoropyrrolidin-1-yl]methyl]-1H-indol-5-yl]-3-methyl-1,3,4,9-tetrahydropyrido[3,4-b]indole] | + (estrogen receptor agonism having (i) at least 80% increase in the E2-normalized signal in the AP assay (agonist mode) and (ii) no more than 80% reduction in the E2-normalized signal in the AP assay (antagonist mode))
C[C@@H]1Cc2c([nH]c3ccccc23)[C@@H](c2ccc3[nH]c(CN4CC(C(C)(C)O)C4)cc3c2)N1CC(C)(C)F [Compound I-48, 2-[1-[[5-[(1R,3R)-2-(2-fluoro-2-methyl-propyl)-3-methyl-1,3,4,9-tetrahydropyrido[3,4-b]indol-1-yl]-1H-indol-2-yl]methyl]azetidin-3-yl]propan-2-ol] | + (estrogen receptor agonism having (i) at least 80% increase in the E2-normalized signal in the AP assay (agonist mode) and (ii) no more than 80% reduction in the E2-normalized signal in the AP assay (antagonist mode))
C[C@@H]1Cc2c([nH]c3ccccc23)[C@@H](c2ccc3[nH]c(CN4CC5(C4)CC(O)(C(F)F)C5)cc3c2)N1CC(C)(C)F [Compound I-49, 6-(difluoromethyl)-2-[[5-[(1R,3R)-2-(2-fluoro-2-methyl-propyl)-3-methyl-1,3,4,9-tetrahydropyrido[3,4-b]indol-1-yl]-1H-indol-2-yl]methyl]-2-azaspiro[3.3]heptan-6-ol] | + (estrogen receptor agonism having (i) at least 80% increase in the E2-normalized signal in the AP assay (agonist mode) and (ii) no more than 80% reduction in the E2-normalized signal in the AP assay (antagonist mode))
C[C@@H]1Cc2c([nH]c3ccccc23)[C@@H](c2ccc3[nH]c(CN4CC(C#N)C4)cc3c2)N1CC(C)(C)F [Compound I-50, 1-[[5-[(1R,3R)-2-(2-fluoro-2-methyl-propyl)-3-methyl-1,3,4,9-tetrahydropyrido[3,4-b]indol-1-yl]-1H-indol-2-yl]methyl]azetidine-3-carbonitrile] | + (estrogen receptor agonism having (i) at least 80% increase in the E2-normalized signal in the AP assay (agonist mode) and (ii) no more than 80% reduction in the E2-normalized signal in the AP assay (antagonist mode))
COCC1CN(Cc2cc3cc([C@@H]4c5[nH]c6ccccc6c5C[C@@H](C)N4CC(C)(C)F)ccc3[nH]2)C1 [Compound I-51, (1R,3R)-2-(2-fluoro-2-methyl-propyl)-1-[2-[[3-(methoxymethyl)azetidin-1-yl]methyl]-1H-indol-5-yl]-3-methyl-1,3,4,9-tetrahydropyrido[3,4-b]indole] | + (estrogen receptor agonism having (i) at least 80% increase in the E2-normalized signal in the AP assay (agonist mode) and (ii) no more than 80% reduction in the E2-normalized signal in the AP assay (antagonist mode))
C[C@@H]1Cc2c([nH]c3ccccc23)[C@@H](c2ccc3[nH]c(CN4CC5(CC(F)C5)C4)cc3c2)N1CC(C)(C)F [Compound I-52, (1R,3R)-1-[2-[(6-fluoro-2-azaspiro[3.3]heptan-2-yl)methyl]-1H-indol-5-yl]-2-(2-fluoro-2-methyl-propyl)-3-methyl-1,3,4,9-tetrahydropyrido[3,4-b]indole] | ++ (estrogen receptor antagonism having (i) between 10% and 80% increase in the E2-normalized signal in the AP assay (agonist mode) and (ii) between 10% and 80% reduction in the E2-normalized signal in the AP assay (antagonist mode))
C[C@@H]1Cc2c([nH]c3ccccc23)[C@@H](c2ccc3[nH]c(CN4CC5(CC(O)C5)C4)cc3c2)N1CC(C)(C)F [Compound I-53, 2-[[5-[(1R,3R)-2-(2-fluoro-2-methyl-propyl)-3-methyl-1,3,4,9-tetrahydropyrido[3,4-b]indol-1-yl]-1H-indol-2-yl]methyl]-2-azaspiro[3.3]heptan-6-ol] | + (estrogen receptor agonism having (i) at least 80% increase in the E2-normalized signal in the AP assay (agonist mode) and (ii) no more than 80% reduction in the E2-normalized signal in the AP assay (antagonist mode))
C[C@@H]1Cc2c([nH]c3ccccc23)[C@@H](c2ccc3[nH]c(CN4CC5(COC5)C4)cc3c2)N1CC(C)(C)F [Compound I-54, 6-[[5-[(1R,3R)-2-(2-fluoro-2-methyl-propyl)-3-methyl-1,3,4,9-tetrahydropyrido[3,4-b]indol-1-yl]-1H-indol-2-yl]methyl]-2-oxa-6-azaspiro[3.3]heptane] | + (estrogen receptor agonism having (i) at least 80% increase in the E2-normalized signal in the AP assay (agonist mode) and (ii) no more than 80% reduction in the E2-normalized signal in the AP assay (antagonist mode))
C[C@@H]1Cc2c([nH]c3ccccc23)[C@@H](c2ccc3cc(CN4CC(CF)C4)[nH]c3c2)N1CC(C)(C)F [Compound I-55, (1R,3R)-1-[2-[[3-(fluoromethyl)azetidin-1-yl]methyl]-1H-indol-6-yl]-2-(2-fluoro-2-methyl-propyl)-3-methyl-1,3,4,9-tetrahydropyrido[3,4-b]indole] | + (estrogen receptor agonism having (i) at least 80% increase in the E2-normalized signal in the AP assay (agonist mode) and (ii) no more than 80% reduction in the E2-normalized signal in the AP assay (antagonist mode))
C[C@@H]1Cc2c([nH]c3ccccc23)[C@@H](c2cc3ccc(CN4CC(CF)C4)cc3[nH]2)N1CC(C)(C)F [Compound I-56, (1R,3R)-1-[6-[[3-(fluoromethyl)azetidin-1-yl]methyl]-1H-indol-2-yl]-2-(2-fluoro-2-methyl-propyl)-3-methyl-1,3,4,9-tetrahydropyrido[3,4-b]indole] | + (estrogen receptor agonism having (i) at least 80% increase in the E2-normalized signal in the AP assay (agonist mode) and (ii) no more than 80% reduction in the E2-normalized signal in the AP assay (antagonist mode))
C[C@@H]1Cc2c([nH]c3ccccc23)[C@@H](c2ccc3oc(CN4CC(CF)C4)cc3c2)N1CC(C)(C)F [Compound I-57, (1R,3R)-1-[2-[[3-(fluoromethyl)azetidin-1-yl]methyl]benzofuran-5-yl]-2-(2-fluoro-2-methyl-propyl)-3-methyl-1,3,4,9-tetrahydropyrido[3,4-b]indole] | +++ (estrogen receptor antagonism (i) with pIC50 greater than 7.5 and at least a 10% reduction in the E2-normalized signal in the AP assay (antagonist mode); and (ii) no more than 10% increase in E2-normalized signal in the AP assay (agonist mode))
C[C@@H]1Cc2c([nH]c3ccccc23)[C@@H](c2ccc3oc(CN4CCC45CC(F)(F)C5)cc3c2)N1CC(C)(C)F [Compound I-58, (1R,3R)-1-[2-[(6,6-difluoro-1-azaspiro[3.3]heptan-1-yl)methyl]benzofuran-5-yl]-2-(2-fluoro-2-methyl-propyl)-3-methyl-1,3,4,9-tetrahydropyrido[3,4-b]indole] | + (estrogen receptor agonism having (i) at least 80% increase in the E2-normalized signal in the AP assay (agonist mode) and (ii) no more than 80% reduction in the E2-normalized signal in the AP assay (antagonist mode))
